# Test results taken from patent US9427400B2, “Platinum-catalyzed intravaginal rings” (International Partnership for Microbicides, priority 2013, dated 2016).
# Read-outs that look alike come from different tables or passages of the source.
# Legend:
# [1] = Log P (n-octanol and buffer); assay type: physicochemical; conditions: at pH 9.0
# [2] = Solubility profile of dapivirine; assay type: physicochemical; conditions: for solubility: read-out: Solubility Profile (Low Solubility)
# Description: As used herein, the term “dapivirine” refers to (4-[[4-[(2,4,6-trimethylphenyl)amino]-2-pyrimidinyl]amino]benzonitrile), a non-nucleoside reverse transcriptase inhibitor. Dapivirine is useful in the prevention and/or treatment of retroviral infection, such as HIV-1 infection. It is a crystalline compound that is white to slightly beige in color, has a melting point of about 220° C. and is virtually insoluble in water. More specifically, the solubility of dapivirine is less than 0.001 mg/gm of water (i.e., less than 1 μg/ml of water). The intravaginal rings of the instant invention may use micronized dapivirine.
# [3] = tested on: wild-type HIV-1 strains and HIV-1 strains harboring different resistance-inducing mutations; conditions: wild-type and resistance-mutant strains; cited from earlier work
structure (smiles),measurement,setting,value
"Cc1cc(C)c(Nc2ccnc(Nc3ccc(C#N)cc3)n2)c(C)c1 [dapivirine, 4-[[4-[(2,4,6-trimethylphenyl)amino]-2-pyrimidinyl]amino]benzonitrile]",logP,[1],5.27
same,solubility,"[2]; 0.1N HCl, simulated gastric fluid",280 µg/mL
same,Solubility Profile (Low Solubility),[2]; PEG 400,PEG 400 = 47.4 mg/g
same,Solubility Profile (Low Solubility),[2]; Propylene Glycol,Propylene Glycol = 2.69 mg/g
same,solubility,[2]; water,> 1 µg/mL
same,activity against HIV-1 strains,[3],potent activity
